Source: ChEMBL document CHEMBL1649551, “Antifungal activity of tamoxifen: in vitro and in vivo activities and mechanistic characterization” (2009)
Converted amounts (≈) assume the structure as drawn. The source made the active and inactive calls. No cut-off for these calls is given here.

What was measured:
Candida tropicalis = assay: Antifungal activity against Candida tropicalis MR064-H after 24 hrs by CLSI method; assay type: functional
Saccharomyces cerevisiae [1] = assay: Antifungal activity against Saccharomyces cerevisiae BY4741 after 24 hrs by CLSI method; assay type: functional; conditions: BY4741, 24 h
Saccharomyces cerevisiae [2] = assay: Antifungal activity against Saccharomyces cerevisiae BY4741 at 8 ug/ml by alexa fluor-phalloidin staining; assay type: functional, organism-based
Cryptococcus neoformans [3] = assay: Antifungal activity against Cryptococcus neoformans KN99alpha after 24 hrs by CLSI method; assay type: functional
Candida albicans [4] = assay: Antifungal activity against Candida albicans SC5314 at 16 ug/ml after 2 hrs by alexa fluor-phalloidin staining; assay type: functional, organism-based
Saccharomyces cerevisiae [5] = assay: Antifungal activity against Saccharomyces cerevisiae BY4741 expressing PKC1 at 62 to 125 ug/mL after 3 days by photographic analysis; assay type: functional, organism-based
Candida albicans [6] = assay: Antifungal activity against Candida albicans SC5314 infected in BALB/c mouse assessed as fungal count per gram of kidney at 200 mg/kg, po administered for 7 days prior to fungal infection; assay type: functional
Cryptococcus neoformans [7] = assay: Antifungal activity against Cryptococcus neoformans NYS3-81 after 24 hrs by CLSI method; assay type: functional; conditions: NYS3-81, 24 h
Saccharomyces cerevisiae [8] = assay: Antifungal activity against Saccharomyces cerevisiae BY4741 assessed as appearance of unbudded cells with more than one nucleus at 8 ug/ml; assay type: functional
Candida parapsilosis = assay: Antifungal activity against Candida parapsilosis R058-G12 after 24 hrs by CLSI method; assay type: functional; conditions: Lodderomyces parapsilosis, R058-G12, 24 h
Saccharomyces cerevisiae [9] = assay: Antifungal activity against Saccharomyces cerevisiae BY4741 expressing CMD1 at 62 to 125 ug/mL after 3 days by photographic analysis; assay type: functional, organism-based
Nakaseomyces glabratus = assay: Antifungal activity against Candida glabrata MR084-G12 after 24 hrs by CLSI method; assay type: functional; conditions: MR084-G12, 24 h
Saccharomyces cerevisiae [10] = assay: Antifungal activity against Saccharomyces cerevisiae BY4741 assessed as inhibition fungal bud formation at 8 ug/ml; assay type: functional, organism-based
Candida albicans [11] = assay: Antifungal activity against Candida albicans ATCC 90028 after 24 hrs by CLSI method; assay type: functional; conditions: ATCC 90028, 24 h
[12] = target: Calmodulin (Saccharomyces cerevisiae S288c) (UniProt P06787); assay: Inhibition of Myo2-GFP binding to Saccharomyces cerevisiae BY4741 calmodulin at 50 ug/ml by Western blot analysis
Candida dubliniensis = assay: Antifungal activity against Candida dubliniensis CD1 after 24 hrs by CLSI method; assay type: functional; conditions: CD1, 24 h
Candida albicans [13] = assay: Antifungal activity against Candida albicans SC5314 after 24 hrs by CLSI method; assay type: functional; conditions: SC5314, 24 h

Calmodulin (Saccharomyces cerevisiae S288c), sequence (P06787 whole entry): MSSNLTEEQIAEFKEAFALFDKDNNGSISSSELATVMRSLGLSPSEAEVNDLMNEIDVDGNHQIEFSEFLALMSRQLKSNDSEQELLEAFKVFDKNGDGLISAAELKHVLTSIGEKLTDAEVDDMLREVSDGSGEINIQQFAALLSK

| MIC (Candida tropicalis) | MIC (Saccharomyces cerevisiae [1]) | MIC (Cryptococcus neoformans [3]) | MIC (Cryptococcus neoformans [7]) | MIC (Candida parapsilosis) | MIC (Nakaseomyces glabratus) | MIC (Candida albicans [11]) | inhibition [12] | MIC (Candida dubliniensis) | MIC (Candida albicans [13]) | SMILES | Activity (Saccharomyces cerevisiae [2]) | Activity (Candida albicans [4]) | Activity (Saccharomyces cerevisiae [5]) | log10cfu (Candida albicans [6]) | Activity (Saccharomyces cerevisiae [8]) | Activity (Saccharomyces cerevisiae [9]) | Activity (Saccharomyces cerevisiae [10]) |
| --- | --- | --- | --- | --- | --- | --- | --- | --- | --- | --- | --- | --- | --- | --- | --- | --- | --- |
| 32 µg/mL (≈ 86.1 µM) | 12 µg/mL (≈ 32.3 µM) | 64 µg/mL (≈ 172 µM) | 64 µg/mL (≈ 172 µM) | 64 µg/mL (≈ 172 µM) | 8 µg/mL (≈ 21.5 µM) | 32 µg/mL (≈ 86.1 µM) | Active | 16 µg/mL (≈ 43.1 µM) | 32 µg/mL (≈ 86.1 µM) | CC/C(=C(\c1ccccc1)c1ccc(OCCN(C)C)cc1)c1ccccc1 [TAMOXIFEN] | Active | Active | Active | 1.5 | 15% | Active | Active |
| 64 µg/mL (≈ 158 µM) | 18 µg/mL (≈ 44.3 µM) | 64 µg/mL (≈ 158 µM) | 64 µg/mL (≈ 158 µM) | 64 µg/mL (≈ 158 µM) | 32 µg/mL (≈ 78.8 µM) | > 64 µg/mL | – | 32 µg/mL (≈ 78.8 µM) | 32 µg/mL (≈ 78.8 µM) | CCN(CC)CCOc1ccc(C(=C(Cl)c2ccccc2)c2ccccc2)cc1 [CLOMIPHENE] | – | – | – | – | – | – | – |
| – | – | – | – | – | – | – | Active | – | – | CN1CCN(CCCN2c3ccccc3Sc3ccc(Cl)cc32)CC1 | – | – | – | – | – | – | – |
